Test results from ChEMBL document CHEMBL1153480, “Study on the potential anti-cancer activity of phosphonium and ammonium-based ionic liquids” (2009).

Assays:
Assay type in all cases: functional
MOLT-4 [1] = assay: cells; conditions: Homo sapiens
Description: Growth inhibition of human MOLT4 cells assessed as cell growth at 10 uM by SRB assay

NCI-H460 [2] = assay: cells; conditions: Homo sapiens
Description: Growth inhibition of human NCI-H460 cells assessed as drug level required for 50% reduction in net protein increase by SRB assay relative to control

U-251 [3] = assay: cells; conditions: Homo sapiens
Description: Growth inhibition of human U251 cells assessed as cell growth at 10 uM by SRB assay

NCI-H522 [4] = assay: cells; conditions: Homo sapiens
Description: Growth inhibition of human NCI-H522 cells assessed as cell growth at 10 uM by SRB assay

MOLT-4 [5] = assay: cells; conditions: Homo sapiens; remark: listed apart in the source
Description: Growth inhibition of human MOLT4 cells assessed as drug level required for 50% reduction in net protein increase by SRB assay relative to control

TK-10 [6] = assay: cells; conditions: Homo sapiens
Description: Growth inhibition of human TK10 cells assessed as drug level required for 50% reduction in net protein increase by SRB assay relative to control

MDA-MB-468 [7] = assay: Cytotoxicity against human MDA-MB-468 cells by SRB assay; conditions: read-out: LC50 (the source's name)
OVCAR-3 = assay: Cytotoxicity against human OVCAR-3 cells by SRB assay; conditions: read-out: LC50 (the source's name)
SK-MEL-2 [8] = assay: cells; conditions: Homo sapiens
Description: Growth inhibition of human SK-MEL-2 cells assessed as drug level required for 50% reduction in net protein increase by SRB assay relative to control

HCT-15 = assay: cells; conditions: Homo sapiens
Description: Growth inhibition of human HCT15 cells assessed as cell growth at 10 uM by SRB assay

cells [9] = conditions: Homo sapiens, Hs-578T
Description: Growth inhibition of human Hs 578T cells assessed as drug level required for 50% reduction in net protein increase by SRB assay relative to control

MOLT-4 [10] = assay: Cytotoxicity against human MOLT4 cells by SRB assay; conditions: read-out: LC50 (the source's name)
SNB-75 [11] = assay: Cytotoxicity against human SNB75 cells by SRB assay; conditions: read-out: LC50 (the source's name)
HL-60(TB) = assay: cells; conditions: Homo sapiens
Description: Growth inhibition of human HL-60(TB) cells assessed as cell growth at 10 uM by SRB assay

MDA-MB-435 [12] = assay: cells; conditions: Homo sapiens
Description: Growth inhibition of human MDA-MB-435 cells assessed as drug level required for 50% reduction in net protein increase by SRB assay relative to control

PC-3 [13] = assay: Cytotoxicity against human PC3 cells by SRB assay; conditions: read-out: LC50 (the source's name)
OVCAR-8 [14] = assay: cells; conditions: Homo sapiens
Description: Growth inhibition of human OVCAR8 cells assessed as cell growth at 10 uM by SRB assay

NCI-H522 [15] = assay: cells; conditions: Homo sapiens; remark: listed apart in the source
Description: Growth inhibition of human NCI-H522 cells assessed as drug level required for 50% reduction in net protein increase by SRB assay relative to control

MDA-MB-231 [16] = assay: cells; conditions: Homo sapiens
Description: Growth inhibition of human MDA-MB-231 cells assessed as drug level required for 50% reduction in net protein increase by SRB assay relative to control

SNB-75 [17] = assay: cells; conditions: Homo sapiens
Description: Growth inhibition of human SNB75 cells assessed as drug level required for 50% reduction in net protein increase by SRB assay relative to control

OVCAR-8 [18] = assay: Cytotoxicity against human OVCAR8 cells by SRB assay; conditions: read-out: LC50 (the source's name)
HT-29 [19] = assay: cells; conditions: Homo sapiens
Description: Growth inhibition of human HT-29 cells assessed as drug level required for 50% reduction in net protein increase by SRB assay relative to control

CCRF-CEM = assay: cells; conditions: Homo sapiens
Description: Growth inhibition of human CCRF-CEM cells assessed as drug level required for 50% reduction in net protein increase by SRB assay relative to control

OVCAR-8 [20] = assay: cells; conditions: Homo sapiens; remark: listed apart in the source
Description: Growth inhibition of human OVCAR8 cells assessed as drug level required for 50% reduction in net protein increase by SRB assay relative to control

UACC-257 = assay: cells; conditions: Homo sapiens
Description: Growth inhibition of human UACC257 cells assessed as drug level required for 50% reduction in net protein increase by SRB assay relative to control

LOX IMVI = assay: cells; conditions: Homo sapiens
Description: Growth inhibition of human LOXIMVI cells assessed as drug level required for 50% reduction in net protein increase by SRB assay relative to control

BT-549 = assay: Cytotoxicity against human BT549 cells by SRB assay; conditions: read-out: LC50 (the source's name)
UACC-62 = assay: cells; conditions: Homo sapiens
Description: Growth inhibition of human UACC62 cells assessed as drug level required for 50% reduction in net protein increase by SRB assay relative to control

cells [21] = conditions: Homo sapiens, Hs-578T; read-out: LC50 (the source's name)
Description: Cytotoxicity against human Hs 578T cells by SRB assay

SNB-19 [22] = assay: Cytotoxicity against human SNB19 cells by SRB assay; conditions: read-out: LC50 (the source's name)
DU-145 = assay: cells; conditions: Homo sapiens
Description: Growth inhibition of human DU145 cells assessed as drug level required for 50% reduction in net protein increase by SRB assay relative to control

HOP-92 [23] = assay: cells; conditions: Homo sapiens
Description: Growth inhibition of human HOP92 cells assessed as drug level required for 50% reduction in net protein increase by SRB assay relative to control

SK-MEL-2 [24] = assay: cells; conditions: Homo sapiens; remark: listed apart in the source
Description: Growth inhibition of human SK-MEL-2 cells assessed as cell growth at 10 uM by SRB assay

K562 = assay: Cytotoxicity against human K562 cells by SRB assay; conditions: read-out: LC50 (the source's name)
SNB-19 [25] = assay: cells; conditions: Homo sapiens
Description: Growth inhibition of human SNB19 cells assessed as cell growth at 10 uM by SRB assay

SK-MEL-28 [26] = assay: cells; conditions: Homo sapiens
Description: Growth inhibition of human SK-MEL-28 cells assessed as drug level required for 50% reduction in net protein increase by SRB assay relative to control

SK-MEL-2 [27] = assay: Cytotoxicity against human SK-MEL-2 cells by SRB assay; conditions: read-out: LC50 (the source's name)
PC-3 [28] = assay: cells; conditions: Homo sapiens
Description: Growth inhibition of human PC3 cells assessed as drug level required for 50% reduction in net protein increase by SRB assay relative to control

T47D [29] = assay: Cytotoxicity against human T47D cells by SRB assay; conditions: read-out: LC50 (the source's name)
cells [30] = conditions: Homo sapiens, CAKI
Description: Growth inhibition of human CAKI cells assessed as drug level required for 50% reduction in net protein increase by SRB assay relative to control

UO-31 [31] = assay: cells; conditions: Homo sapiens
Description: Growth inhibition of human UO31 cells assessed as cell growth at 10 uM by SRB assay

MDA-MB-468 [32] = assay: cells; conditions: Homo sapiens
Description: Growth inhibition of human MDA-MB-468 cells assessed as drug level required for 50% reduction in net protein increase by SRB assay relative to control

MDA-MB-435 [33] = assay: Cytotoxicity against human MDA-MB-435 cells by SRB assay; conditions: read-out: LC50 (the source's name)
SK-MEL-5 = assay: cells; conditions: Homo sapiens
Description: Growth inhibition of human SK-MEL-5 cells assessed as drug level required for 50% reduction in net protein increase by SRB assay relative to control

SR = assay: Cytotoxicity against human SR cells by SRB assay; conditions: read-out: LC50 (the source's name)
SK-MEL-28 [34] = assay: Cytotoxicity against human SK-MEL-28 cells by SRB assay; conditions: read-out: LC50 (the source's name)
T47D [35] = assay: cells; conditions: Homo sapiens
Description: Growth inhibition of human T47D cells assessed as drug level required for 50% reduction in net protein increase by SRB assay relative to control

MCF7 = assay: Cytotoxicity against human MCF7 cells by SRB assay; conditions: read-out: LC50 (the source's name)
HT-29 [36] = assay: cells; conditions: Homo sapiens; remark: listed apart in the source
Description: Growth inhibition of human HT-29 cells assessed as cell growth at 10 uM by SRB assay

T47D [37] = assay: cells; conditions: Homo sapiens; remark: listed apart in the source
Description: Growth inhibition of human T47D cells assessed as cell growth at 10 uM by SRB assay

HCC 2998 [38] = assay: Cytotoxicity against human HCC2998 cells by SRB assay; conditions: read-out: LC50 (the source's name)
Malme-3M = assay: Cytotoxicity against human MALME-3M cells by SRB assay; conditions: read-out: LC50 (the source's name)
HOP-62 = assay: cells; conditions: Homo sapiens
Description: Growth inhibition of human HOP62 cells assessed as cell growth at 10 uM by SRB assay

TK-10 [39] = assay: cells; conditions: Homo sapiens; remark: listed apart in the source
Description: Growth inhibition of human TK10 cells assessed as cell growth at 10 uM by SRB assay

SF-539 = assay: cells; conditions: Homo sapiens
Description: Growth inhibition of human SF539 cells assessed as drug level required for 50% reduction in net protein increase by SRB assay relative to control

KM12 = assay: cells; conditions: Homo sapiens
Description: Growth inhibition of human KM12 cells assessed as cell growth at 10 uM by SRB assay

HCC 2998 [40] = assay: cells; conditions: Homo sapiens
Description: Growth inhibition of human HCC2998 cells assessed as drug level required for 50% reduction in net protein increase by SRB assay relative to control

NCI-H460 [41] = assay: cells; conditions: Homo sapiens; remark: listed apart in the source
Description: Growth inhibition of human NCI-H460 cells assessed as cell growth at 10 uM by SRB assay

MDA-MB-231 [42] = assay: cells; conditions: Homo sapiens; remark: listed apart in the source
Description: Growth inhibition of human MDA-MB-231 cells assessed as cell growth at 10 uM by SRB assay

A549 = assay: Cytotoxicity against human A549 cells by SRB assay; conditions: read-out: LC50 (the source's name)
U-251 [43] = assay: cells; conditions: Homo sapiens; remark: listed apart in the source
Description: Growth inhibition of human U251 cells assessed as drug level required for 50% reduction in net protein increase by SRB assay relative to control

NCI-H322M [44] = assay: cells; conditions: Homo sapiens
Description: Growth inhibition of human NCI-H322M cells assessed as cell growth at 10 uM by SRB assay

ACHN = assay: cells; conditions: Homo sapiens
Description: Growth inhibition of human ACHN cells assessed as drug level required for 50% reduction in net protein increase by SRB assay relative to control

NCI-H322M [45] = assay: cells; conditions: Homo sapiens; remark: listed apart in the source
Description: Growth inhibition of human NCI-H322M cells assessed as drug level required for 50% reduction in net protein increase by SRB assay relative to control

NCI-H522 [46] = assay: Cytotoxicity against human NCI-H522 cells by SRB assay; conditions: read-out: LC50 (the source's name)
[47] = Cytotoxicity against human CAKI cells by SRB assay; conditions: read-out: LC50 (the source's name)
UO-31 [48] = assay: cells; conditions: Homo sapiens; remark: listed apart in the source
Description: Growth inhibition of human UO31 cells assessed as drug level required for 50% reduction in net protein increase by SRB assay relative to control

COLO 205 [49] = assay: cells; conditions: Homo sapiens
Description: Growth inhibition of human COLO205 cells assessed as drug level required for 50% reduction in net protein increase by SRB assay relative to control

HOP-92 [50] = assay: cells; conditions: Homo sapiens; remark: listed apart in the source
Description: Growth inhibition of human HOP92 cells assessed as cell growth at 10 uM by SRB assay

COLO 205 [51] = assay: cells; conditions: Homo sapiens; remark: listed apart in the source
Description: Growth inhibition of human COLO205 cells assessed as cell growth at 10 uM by SRB assay

RXF 393 = assay: cells; conditions: Homo sapiens
Description: Growth inhibition of human RFX393 cells assessed as drug level required for 50% reduction in net protein increase by SRB assay relative to control

CCCCCCCC[N+](C)(CCCCCCCC)CCCCCCCC.O=S(=O)([N-]S(=O)(=O)C(F)(F)F)C(F)(F)F
growth at 10 µM (MOLT-4 [1]): 37.4%
GI50 (NCI-H460 [2]): 362 nM
growth at 10 µM (U-251 [3]): -75%
growth at 10 µM (NCI-H522 [4]): -99.9%
GI50 (MOLT-4 [5]): 324 nM
GI50 (TK-10 [6]): 503 nM
CC50 (MDA-MB-468 [7]): 2110 nM
CC50 (OVCAR-3): 4180 nM
GI50 (SK-MEL-2 [8]): 356 nM
growth at 10 µM (HCT-15): -75%
GI50 (cells [9]): 417 nM
CC50 (MOLT-4 [10]): 4890 nM
CC50 (SNB-75 [11]): 3770 nM
growth at 10 µM (HL-60(TB)): 32%
GI50 (MDA-MB-435 [12]): 335 nM
CC50 (PC-3 [13]): 3990 nM
growth at 10 µM (OVCAR-8 [14]): -100%
GI50 (NCI-H522 [15]): 287 nM
GI50 (MDA-MB-231 [16]): 345 nM
GI50 (SNB-75 [17]): 336 nM
CC50 (OVCAR-8 [18]): 5880 nM
GI50 (HT-29 [19]): 305 nM
GI50 (CCRF-CEM): 190 nM
GI50 (OVCAR-8 [20]): 468 nM
GI50 (UACC-257): 411 nM
GI50 (LOX IMVI): 192 nM
CC50 (BT-549): 4420 nM
GI50 (UACC-62): 335 nM
CC50 (cells [21]): > 100000 nM
CC50 (SNB-19 [22]): 8250 nM
GI50 (DU-145): 407 nM
GI50 (HOP-92 [23]): 206 nM
growth at 10 µM (SK-MEL-2 [24]): -94.1%
CC50 (K562): 4860 nM
growth at 10 µM (SNB-19 [25]): -89.6%
GI50 (SK-MEL-28 [26]): 710 nM
CC50 (SK-MEL-2 [27]): > 100000 nM
GI50 (PC-3 [28]): 282 nM
CC50 (T47D [29]): > 100000 nM
GI50 (cells [30]): 84 nM
growth at 10 µM (UO-31 [31]): -100%
GI50 (MDA-MB-468 [32]): 119 nM
CC50 (MDA-MB-435 [33]): 5700 nM
GI50 (SK-MEL-5): 177 nM
CC50 (SR): 5130 nM
CC50 (SK-MEL-28 [34]): 7180 nM
GI50 (T47D [35]): 428 nM
CC50 (MCF7): 4020 nM
growth at 10 µM (HT-29 [36]): -100%
growth at 10 µM (T47D [37]): -73.3%
CC50 (HCC 2998 [38]): 6960 nM
CC50 (Malme-3M): 4110 nM
growth at 10 µM (HOP-62): -92.2%
growth at 10 µM (TK-10 [39]): -100%
GI50 (SF-539): 514 nM
growth at 10 µM (KM12): -100%
GI50 (HCC 2998 [40]): 425 nM
growth at 10 µM (NCI-H460 [41]): -100%
growth at 10 µM (MDA-MB-231 [42]): -87%
CC50 (A549): 8580 nM
GI50 (U-251 [43]): 334 nM
growth at 10 µM (NCI-H322M [44]): -100%
GI50 (ACHN): 630 nM
GI50 (NCI-H322M [45]): 1810 nM
CC50 (NCI-H522 [46]): 5400 nM
CC50 [47]: 3280 nM
GI50 (UO-31 [48]): 686 nM
GI50 (COLO 205 [49]): 292 nM
growth at 10 µM (HOP-92 [50]): -70%
growth at 10 µM (COLO 205 [51]): -60.6%
GI50 (RXF 393): 464 nM
